For this assay, the system named is BDF1 mice, L1210/MTX-resistant leukemia ip, survival T/C. As to the kind of experiment: NCI In Vivo Anticancer Drug Screen. Data for tumor model L1210 Leukemia resistant to Methotrexate; NSC 740 (intraperitoneal) in B6D2F1 (BDF1) mice. Conditions: endpoint: mean survival time, higher = longer survival. The method, then: The antitumor activity of compounds was measured in mice bearing transplantable tumors. Survival or tumor size were measured and the results are expressed as the measurement made in the treated group (T) divided by the measurement made in the vehicle treated control group (C). The tumor model used in this assay is L1210 Leukemia resistant to Methotrexate; NSC 740 (intraperitoneal) in B6D2F1 (BDF1) mice

Where [1] appears, read: dose: 4.0 mg/kg/injection, schedule: Q01DX010 (ip), vehicle: other.
The mark [2] stands for this setting: dose: 4.0 mg/kg/injection, schedule: Q01DX Z (ip), vehicle: carboxymethylcellulose (CMC).
Where [3] appears, read: dose: 7.5 mg/kg/injection, schedule: Q01DX Z (ip), vehicle: carboxymethylcellulose (CMC).
Setting [4] is: dose: 8.0 mg/kg/injection, schedule: Q01DX010 (ip), vehicle: other.
[5] abbreviates: dose: 10.0 mg/kg/injection, schedule: Q01DX Z (ip), vehicle: carboxymethylcellulose (CMC).
The mark [6] stands for this setting: dose: 12.5 mg/kg/injection, schedule: Q01DX010 (ip), vehicle: saline.
Where [7] appears, read: dose: 25.0 mg/kg/injection, schedule: Q01DX010 (sc), vehicle: steriod suspending solution.
Setting [8] is: dose: 12.5 mg/kg/injection, schedule: Q01DX010 (sc), vehicle: steriod suspending solution.
Where [9] appears, read: dose: 50.0 mg/kg/injection, schedule: Q01DX010 (sc), vehicle: steriod suspending solution.
Setting [10] is: dose: 100.0 mg/kg/injection, schedule: Q01DX010 (sc), vehicle: steriod suspending solution.

Several values for one entry are separate records, joined by “and”; a condition that tells them apart may be missing. Equal entries are not always repeated. Toxic doses and inconclusive results are not listed.

Turning to `NC(Cc1ccc(N(CCCl)CCCl)cc1)C(=O)O` (configuration not stated), the T/C (dose: 0.5 mg/kg/injection, schedule: Q01DX Z (ip), vehicle: carboxymethylcellulose (CMC)) was 112 % of control; the T/C (dose: 1.0 mg/kg/injection, schedule: Q01DX Z (ip), vehicle: carboxymethylcellulose (CMC)) was 123 % of control; the T/C (dose: 2.0 mg/kg/injection, schedule: Q01DX010 (ip), vehicle: other) is 156 % of control; the T/C (dose: 2.0 mg/kg/injection, schedule: Q01DX Z (ip), vehicle: carboxymethylcellulose (CMC)) was 102 % of control; the T/C under setting [1] was 98 % of control; the T/C under setting [2] was 90 % of control. For the same compound, the T/C reads like this: (dose: 5.0 mg/kg/injection, schedule: Q01DX Z (ip), vehicle: carboxymethylcellulose (CMC)) 107 % of control; under setting [3], 86 % of control; under setting [4], 91 % of control; under setting [5], 93 % of control.

As for `[I][Hg][CH2]C1COC([CH2][Hg][I])CO1` (configuration not stated), the T/C (dose: 0.8 mg/kg/injection, schedule: Q01DX Z (ip), vehicle: methylcellulose (MC)) is 94 % of control; the T/C (dose: 1.6 mg/kg/injection, schedule: Q01DX Z (ip), vehicle: methylcellulose (MC)) is 94 % of control; the T/C (dose: 6.25 mg/kg/injection, schedule: Q01DX010 (ip), vehicle: saline) is 101 % of control; the T/C under setting [6] was 103 % of control.

Consider `C[C@]12C=CC(=O)C=C1CC[C@@H]1[C@@H]2C(=O)C[C@@]2(C)[C@H]1CC[C@]2(O)C(=O)CO`, for which, under setting [7], the T/C was 90 % of control.

For the compound `C[C@]12C=CC(=O)C=C1CC[C@@H]1[C@@H]2[C@@H](O)C[C@@]2(C)[C@H]1CC[C@]2(O)C(=O)CO`, the T/C runs as follows: under setting [8], 88 % of control; under setting [7], 99 % of control; under setting [9], 86 % of control; under setting [10], 90 % of control.

For `C[n+]1c2ccccc2nc2c(N)cc(N)cc21`, the T/C was 101 % of control and 110 % of control (dose: 3.2 mg/kg/injection, schedule: Q01DX Z (ip), vehicle: other); 116 % of control and 107 % of control (dose: 6.3 mg/kg/injection, schedule: Q01DX Z (ip), vehicle: other); 122 % of control (dose: 8.0 mg/kg/injection, schedule: Q01DX010 (ip), vehicle: saline); 114 % of control (dose: 12.0 mg/kg/injection, schedule: Q01DX010 (ip), vehicle: saline); 103 % of control and 105 % of control (dose: 12.5 mg/kg/injection, schedule: Q01DX Z (ip), vehicle: other); 96 % of control (dose: 18.0 mg/kg/injection, schedule: Q01DX010 (ip), vehicle: saline).

In the case of `O=c1cnn(C2OC(CO)C(O)C2O)c(=O)[nH]1` (configuration not stated), the T/C reads like this: (dose: 125.0 mg/kg/injection, schedule: Q01DX Z (ip), vehicle: methylcellulose (MC)) 97 % of control; (dose: 250.0 mg/kg/injection, schedule: Q01DX Z (ip), vehicle: methylcellulose (MC)) 95 % of control; (dose: 500.0 mg/kg/injection, schedule: Q01DX Z (ip), vehicle: methylcellulose (MC)) 104 % of control.

`CC/C(=C(/CC)c1ccc(O)cc1)c1ccc(O)cc1`: the T/C by setting is: under setting [6], 94 % of control; under setting [8], 92 % of control; (dose: 25.0 mg/kg/injection, schedule: Q01DX010 (ip), vehicle: saline) 94 % of control; under setting [9], 89 % of control; under setting [10], 86 % of control and 87 % of control.

On to `O=C(Nc1ccc(C2=NCCN2)cc1)c1ccc(C(=O)Nc2ccc(C3=NCCN3)cc2)cc1`, for which the T/C under setting [1] is 194 % of control and 204 % of control; the T/C under setting [4] is 244 % of control and 279 % of control; the T/C (dose: 10.0 mg/kg/injection, schedule: Q01DX Z (ip), vehicle: methylcellulose (MC)) was 124 % of control and 105 % of control; the T/C (dose: 16.0 mg/kg/injection, schedule: Q01DX010 (ip), vehicle: other) was 218 % of control and 219 % of control; the T/C (dose: 20.0 mg/kg/injection, schedule: Q01DX Z (ip), vehicle: methylcellulose (MC)) was 120 % of control and 106 % of control; the T/C (dose: 32.0 mg/kg/injection, schedule: Q01DX010 (ip), vehicle: other) is 231 % of control and 239 % of control. The T/C runs as follows: (dose: 40.0 mg/kg/injection, schedule: Q01DX Z (ip), vehicle: methylcellulose (MC)) 117 % of control; (dose: 64.0 mg/kg/injection, schedule: Q01DX010 (ip), vehicle: other) 222 % of control and 242 % of control.

In the case of `CSc1ncnc2nc[nH]c12`, the T/C is, setting by setting: under setting [3], 93 % of control; (dose: 15.0 mg/kg/injection, schedule: Q01DX Z (ip), vehicle: carboxymethylcellulose (CMC)) 86 % of control; (dose: 31.0 mg/kg/injection, schedule: Q01DX Z (ip), vehicle: carboxymethylcellulose (CMC)) 122 % of control; (dose: 62.5 mg/kg/injection, schedule: Q01DX Z (ip), vehicle: carboxymethylcellulose (CMC)) 112 % of control; (dose: 125.0 mg/kg/injection, schedule: Q01DX Z (ip), vehicle: carboxymethylcellulose (CMC)) 107 % of control.

Take `O=P1(N(CCCl)CCCl)NCCCO1` (configuration not stated): the T/C is 100 % of control (dose: 11.3 mg/kg/injection, schedule: Q01DX010 (ip), vehicle: saline); 98 % of control and 103 % of control (dose: 12.5 mg/kg/injection, schedule: Q01DX Z (ip), vehicle: saline); 174 % of control (dose: 22.5 mg/kg/injection, schedule: Q01DX Z (ip), vehicle: saline); 152 % of control (dose: 45.0 mg/kg/injection, schedule: Q01DX010 (ip), vehicle: saline); 87 % of control (dose: 90.0 mg/kg/injection, schedule: Q01DX010 (ip), vehicle: saline); 88 % of control and 109 % of control (dose: 100.0 mg/kg/injection, schedule: Q01DX Z (ip), vehicle: saline). For the same compound, the T/C (dose: 200.0 mg/kg/injection, schedule: Q01DX Z (ip), vehicle: saline) was 88 % of control and 103 % of control.

With `Cc1cc(N(CCCl)CCCl)ccc1N=Nc1ccccc1C(=O)O`, the T/C was 104 % of control (dose: 0.37 mg/kg/injection, schedule: Q01DX Z (ip), vehicle: carboxymethylcellulose (CMC)); 124 % of control (dose: 0.75 mg/kg/injection, schedule: Q01DX Z (ip), vehicle: carboxymethylcellulose (CMC)); 94 % of control (dose: 3.0 mg/kg/injection, schedule: Q01DX Z (ip), vehicle: carboxymethylcellulose (CMC)); 109 % of control under setting [2]; 123 % of control (dose: 5.0 mg/kg/injection, schedule: Q01DX010 (ip), vehicle: saline); 124 % of control (dose: 6.0 mg/kg/injection, schedule: Q01DX Z (ip), vehicle: carboxymethylcellulose (CMC)). Moreover, the T/C (dose: 8.0 mg/kg/injection, schedule: Q01DX Z (ip), vehicle: carboxymethylcellulose (CMC)) was 104 % of control; the T/C (dose: 10.0 mg/kg/injection, schedule: Q01DX010 (ip), vehicle: saline) was 107 % of control; the T/C under setting [5] was 97 % of control; the T/C (dose: 20.0 mg/kg/injection, schedule: Q01DX010 (ip), vehicle: saline) was 88 % of control.

Consider `OCC1OC(n2cnc3c(Cl)ncnc32)C(O)C1O` (configuration not stated), for which the T/C is 87 % of control and 90 % of control (dose: 62.5 mg/kg/injection, schedule: Q01DX010 (ip), vehicle: saline); 95 % of control and 98 % of control (dose: 125.0 mg/kg/injection, schedule: Q01DX010 (ip), vehicle: saline); 95 % of control and 100 % of control (dose: 250.0 mg/kg/injection, schedule: Q01DX010 (ip), vehicle: saline); 98 % of control (dose: 500.0 mg/kg/injection, schedule: Q01DX010 (ip), vehicle: saline).

The record behind these values is PubChem BioAssay AID284 (DTP/NCI, 2004).
